Article PMC3985256, “Synthesis of Brominated 2-Phenitidine Derivatives as Valuable Inhibitors of Cholinesterases for the Treatment of Alzheimer’s Disease” (Iranian Journal of Pharmaceutical Research : IJPR, 2014)
Like-named read-outs stand apart in the source and are kept apart here.

What was measured:
Assay type in all cases: biochemical
[1] = target: acetylcholinesterase (AChE) (Homo sapiens, UniProt P22303); assay: Acetylcholinesterase inhibition assay; conditions: for inhibition at 500 µM: read-out: Acetylcholinestrase (AChE) inhibition (%) at 0.5 mM
Method: The AChE inhibition activity was performed according to the reported method ([14]) with slight modifications. Total volume of the reaction mixture was 100 μL. It contained 60 μL Na2HPO4 buffer with concentration of 50 mM and pH 7.7. Ten μL test compound (0.5 mM well^-1) was added, followed by the addition of 10 μL (0.005 unit well^-1) enzyme. The contents were mixed and pre-read at 405 nm. Then contents were pre-incubated for 10 min at 37 °C. The reaction was initiated by the addition of 10 μL of 0.5 mM well^-1 substrate (acetylthiocholine iodide), followed by the addition of 10 μL DTNB (0.5 mM well^-1). After 15 min of incubation at 37 °C, absorbance was measured at 405 nm. Synergy HT (BioTek, USA) 96-well plate reader was used in all experiments. All experiments were carried out with their respective controls in triplicate. […] The percent inhibition was calculated by the help of following equation )[19] (.
(§1) Inhibition %=Control-Test/Control×100
(§2) IC50 values (concentration at which there is 50% enzyme inhibition) of compounds were calculated using EZ-Fit Enzyme kinetics software (Perella Scientific Inc. Amherst, USA).

[2] = target: T1, lipoxygenase (LOX) (Glycine max, UniProt P08170); assay: Lipoxygenase inhibition assay; conditions: n = 3, mean ± sem; for inhibition at 500 µM: 0.5 mM
T1 sequence (P08170 1-839): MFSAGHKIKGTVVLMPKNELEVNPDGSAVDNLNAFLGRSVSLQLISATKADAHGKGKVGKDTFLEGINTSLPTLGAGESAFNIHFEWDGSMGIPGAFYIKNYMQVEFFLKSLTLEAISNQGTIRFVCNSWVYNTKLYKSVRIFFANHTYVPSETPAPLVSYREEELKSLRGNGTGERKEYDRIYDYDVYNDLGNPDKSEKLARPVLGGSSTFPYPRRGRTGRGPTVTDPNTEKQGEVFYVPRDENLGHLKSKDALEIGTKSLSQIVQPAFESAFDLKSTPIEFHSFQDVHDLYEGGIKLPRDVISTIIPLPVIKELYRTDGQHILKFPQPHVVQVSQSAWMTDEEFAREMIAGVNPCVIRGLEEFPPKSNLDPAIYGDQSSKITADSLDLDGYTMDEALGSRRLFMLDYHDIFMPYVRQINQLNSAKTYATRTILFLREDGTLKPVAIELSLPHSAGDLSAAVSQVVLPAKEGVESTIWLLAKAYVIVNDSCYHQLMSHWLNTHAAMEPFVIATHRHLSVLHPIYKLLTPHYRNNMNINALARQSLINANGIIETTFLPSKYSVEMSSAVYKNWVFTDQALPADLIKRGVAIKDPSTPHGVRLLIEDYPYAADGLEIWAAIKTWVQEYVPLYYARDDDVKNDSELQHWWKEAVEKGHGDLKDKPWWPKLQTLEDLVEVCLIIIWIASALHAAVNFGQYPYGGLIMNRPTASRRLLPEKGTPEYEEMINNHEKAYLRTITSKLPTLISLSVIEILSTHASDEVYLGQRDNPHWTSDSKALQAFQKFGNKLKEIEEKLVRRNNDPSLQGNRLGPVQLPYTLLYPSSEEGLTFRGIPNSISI
Method: Lipoxygenase activity was assayed according to the reported method ([18]-[20]) but with slight modifications. A total volume of 200 μL assay mixture contained 150 μL sodium phosphate buffer (100 mM, pH 8.0), 10 μL test compound and 15 μL purified lipoxygenase enzyme (Sigma, USA). The contents were mixed and pre-read at 234 nm and pre-incubated for 10 min at 25 °C. The reaction was initiated by the addition of 25 μL substrate solution. The change in absorbance was observed after 6 min at 234 nm. Synergy HT (BioTek, USA) 96-well plate reader was used in all experiments. All reactions were performed in triplicates. The positive and negative controls were included in the assay. Baicalein (0.5 mM well^-1) was used as a positive control. The percentage inhibition was calculated by formula as follows.

[3] = target: butyrylcholinesterase (BChE) (Homo sapiens, UniProt P06276); assay: Butyrylcholinesterase inhibition assay; conditions: for inhibition at 500 µM: read-out: Butyrylcholinesterase (BChE) inhibition (%) at 0.5 mM
Method: The BChE inhibition activity was performed according to the reported method ([14],[17]) with slight modifications. Total volume of the reaction mixture was 100 μL containing 60 μL, Na2HPO4 buffer, 50 mM and pH 7.7. Ten μL test compound 0.5 mM well^-1, followed by the addition of 10 μL (0. 5 unit well^-1) BChE. The contents were mixed and pre-read at 405 nm. Then contents were pre-incubated for 10 min at 37 °C. The reaction was initiated by the addition of 10 μL of 0.5 mM well^-1 substrate (butyrylthiocholine bromide), followed by the addition of 10 μL DTNB (0.5 mM well^-1). After 15 min of incubation at 37 °C, absorbance was measured at 405 nm. Synergy HT (BioTek, USA) 96-well plate reader was used in all experiments. All experiments were carried out with their respective controls in triplicate. […] The percent inhibition was calculated by the help of following equation.
as §1, §2

[4] = n = 3, mean ± sem, read-out: Butyrylcholinesterase (BChE) (IC50)
[5] = n = 3, mean ± sem, read-out: Acetylcholinestrase (AChE) (IC50)

butyrylcholinesterase (BChE), sequence (P06276 29-602): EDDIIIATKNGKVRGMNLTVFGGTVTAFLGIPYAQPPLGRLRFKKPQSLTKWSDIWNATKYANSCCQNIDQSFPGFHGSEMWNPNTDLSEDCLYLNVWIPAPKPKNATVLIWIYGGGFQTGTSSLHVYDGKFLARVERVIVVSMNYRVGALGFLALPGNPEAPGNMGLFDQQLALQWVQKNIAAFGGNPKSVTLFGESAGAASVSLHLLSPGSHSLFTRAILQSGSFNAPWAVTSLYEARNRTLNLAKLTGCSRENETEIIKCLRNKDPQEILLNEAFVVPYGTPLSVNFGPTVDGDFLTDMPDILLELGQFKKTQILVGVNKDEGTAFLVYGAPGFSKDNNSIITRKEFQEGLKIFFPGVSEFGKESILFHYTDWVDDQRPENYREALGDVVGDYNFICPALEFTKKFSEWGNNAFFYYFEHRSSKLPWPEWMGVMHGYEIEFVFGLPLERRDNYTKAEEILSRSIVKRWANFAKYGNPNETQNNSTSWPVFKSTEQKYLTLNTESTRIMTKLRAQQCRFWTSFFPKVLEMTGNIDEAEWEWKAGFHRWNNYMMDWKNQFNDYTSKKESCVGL
acetylcholinesterase (AChE), sequence (P22303 32-614): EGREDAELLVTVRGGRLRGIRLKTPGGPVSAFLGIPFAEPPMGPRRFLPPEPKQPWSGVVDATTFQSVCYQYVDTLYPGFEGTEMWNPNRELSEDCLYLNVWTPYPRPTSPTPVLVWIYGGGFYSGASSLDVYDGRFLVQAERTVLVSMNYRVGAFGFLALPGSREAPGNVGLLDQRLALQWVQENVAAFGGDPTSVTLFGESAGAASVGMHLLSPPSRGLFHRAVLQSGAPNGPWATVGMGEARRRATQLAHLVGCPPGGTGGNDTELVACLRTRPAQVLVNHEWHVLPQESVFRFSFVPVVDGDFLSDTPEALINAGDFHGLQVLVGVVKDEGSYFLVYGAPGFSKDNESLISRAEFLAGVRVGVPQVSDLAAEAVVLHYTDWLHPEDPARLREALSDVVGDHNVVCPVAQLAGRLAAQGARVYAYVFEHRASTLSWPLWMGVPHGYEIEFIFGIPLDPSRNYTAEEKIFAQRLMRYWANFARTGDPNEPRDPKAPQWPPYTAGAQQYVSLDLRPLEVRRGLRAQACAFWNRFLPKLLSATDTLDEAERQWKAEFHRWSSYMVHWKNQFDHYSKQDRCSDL

Row | Compound | inhibition at 500 µM ([1]; 0.5 mM, n = 3, mean ± sem) | Acetylcholinestrase (AChE) (IC50) ([1]; n = 3, mean ± sem) | inhibition at 500 µM [2] | inhibition at 500 µM ([3]; 0.5 mM, n = 3, mean ± sem) | IC50 [3, 4] | IC50 [1, 5] | Lipoxygenase (LOX) (IC50) [2] | IC50 [1] | inhibition at 500 µM [1] | IC50 [3] | inhibition at 500 µM [3] | IC50 [2]
1 | CCOc1cc(Br)c(Br)cc1N(CC)S(=O)(=O)c1ccccc1 [Compound 6a, N-Ethyl-N-(4,5-dibromo-2-ethoxyphenyl)benzenesulfonamide] | 28.9 ± 0.31% | NIL | 81.75 ± 0.71% | 85.33 ± 0.26% | 54.9 ± 0.85 µM |  |  |  |  |  |  | 
2 | CCOc1cc(Br)c(Br)cc1N(Cc1ccccc1Cl)S(=O)(=O)c1ccccc1 [Compound 6k] | 86.71 ± 0.22% |  | 33.23 ± 0.22% | 93.66 ± 0.82% | 42.21 ± 0.25 µM | 52.41 ± 0.27 µM | NIL |  |  |  |  | 
3 | CCOc1cc(Br)c(Br)cc1N(C(C)C)S(=O)(=O)c1ccccc1 [Compound 6b, N-Isopropyl -N-(4,5-dibromo-2-ethoxyphenyl)benzenesulfonamide] | 79.07 ± 0.38% |  | 83.54 ± 0.33% | 56.57 ± 0.55% | > 300 µM | 87.31 ± 0.11 µM |  |  |  |  |  | 
4 | C=CCN(c1cc(Br)c(Br)cc1OCC)S(=O)(=O)c1ccccc1 [Compound 6c, N-Allyl -N-(4,5-dibromo-2-ethoxyphenyl)benzenesulfonamide] | 72.22 ± 0.55% |  | 66.26 ± 0.54% | 80.75 ± 0.68% | 68.41 ± 0.21 µM | 143.91 ± 0.08 µM |  |  |  |  |  | 
5 | CCOc1cc(Br)c(Br)cc1N(CCc1ccccc1)S(=O)(=O)c1ccccc1 [Compound 6f, N-Phenylethyl-N-(4,5-dibromo-2-ethoxyphenyl)benzenesulfonamide] | 77.58 ± 0.66% |  | 90.02 ± 0.37% | 88.73 ± 0.14% | 53.41 ± 0.51 µM | 86.41 ± 0.51 µM |  |  |  |  |  | 
6 | CCOc1cc(Br)c(Br)cc1N(Cc1ccccc1)S(=O)(=O)c1ccccc1 [Compound 6e, N-Benzyl-N-(4,5-dibromo-2-ethoxyphenyl)benzenesulfonamide] | 79.27 ± 0.63% |  | 31.29 ± 0.18% | 85.92 ± 0.28% | 58.71 ± 0.08 µM | 88.21 ± 0.17 µM | NIL |  |  |  |  | 
7 | CCOc1cc(Br)c(Br)cc1N(Cc1cccc(Cl)c1)S(=O)(=O)c1ccccc1 [Compound 6i] | 82.54 ± 0.36% |  | 49.6 ± 0.64% | 91.78 ± 0.33% | 57.11 ± 0.46 µM | 73.9 ± 0.87 µM | NIL |  |  |  |  | 
8 | CCOc1cc(Br)c(Br)cc1N(Cc1ccc(Cl)cc1)S(=O)(=O)c1ccccc1 [Compound 6l] | 82.94 ± 0.15% |  | 55.5 ± 0.84% | 66.31 ± 0.11% | 190.31 ± 0.17 µM | 126.61 ± 0.02 µM |  |  |  |  |  | 
9 | CCOc1cc(Br)c(Br)cc1NS(=O)(=O)c1ccccc1 [Compound 4, N-(4,5-dibromo-2-ethoxyphenyl)benzenesulfonamide] | 44.15 ± 0.19% | NIL | 11.6 ± 0.27% | 80.75 ± 0.17% | 70.21 ± 0.18 µM |  | NIL |  |  |  |  | 
10 | CCOc1cc(Br)c(Br)cc1N(Cc1ccc(Br)cc1)S(=O)(=O)c1ccccc1 [Compound 6h] | 74.31 ± 0.11% |  | 37.04 ± 0.28% | 87.91 ± 0.25% | 60.11 ± 0.34 µM | 145.6 ± 0.21 µM | NIL |  |  |  |  | 
11 | CCOc1cc(Br)c(Br)cc1N(CCBr)S(=O)(=O)c1ccccc1 [Compound 6d] |  |  | 83.95 ± 0.22% |  |  |  |  | 131.9 ± 0.16 µM | 73.21 ± 0.71% | 45.31 ± 0.17 µM | 87.2 ± 0.96% | 
12 | CCOc1cc(Br)c(Br)cc1N(Cc1ccc(F)cc1)S(=O)(=O)c1ccccc1 [Compound 6j] | 81.45 ± 0.12% |  | 51.23 ± 0.31% | 87.21 ± 0.31% | 60.2 ± 0.66 µM | 71.31 ± 0.09 µM |  |  |  |  |  | 
13 | CCOc1cc(Br)c(Br)cc1N(CCCc1ccccc1)S(=O)(=O)c1ccccc1 [Compound 6g, N-Phenylpropyl-N-(4,5-dibromo-2-ethoxyphenyl)benzenesulfonamide] | 77.18 ± 0.33% |  | 75.21 ± 0.11% | 90.14 ± 0.77% | 57.5 ± 0.63 µM | 158.41 ± 0.11 µM |  |  |  |  |  | 
14 | O=c1cc(-c2ccccc2)oc2cc(O)c(O)c(O)c12 [Baicalein, reference compound] |  |  |  |  |  |  |  |  |  |  |  | 22.4 ± 1.3 µM
